Test results published in publication PMC9930120 (Journal of Chemical Information and Modeling, 2023).
Like-named read-outs stand apart in the source and are kept apart here.

What was measured:
[1] = target: T1, human CB2 (Homo sapiens, UniProt P34972); settings: cited from earlier work
[2] = target: T1, human CB2; test: biochemical; type: binding; settings: for CB2 Ki (μM, 95% CI) / CB2 pKi ± SEM / Ki: [3H]CP-55,940 displacement, CHO-K1 membranes
Procedure: The compounds selected for the in vitro binding assay were purchased via MolPort, SIA, Riga, Latvia (Supporting Information S2). Membrane preparations from CHO-K1 cells expressing the human CB2 (ChemiSCREEN Membrane Preparation Recombinant Human CB2 Cannabinoid Receptor. Merck, USA) were incubated in duplicate with 0.8 nM [^3H]CP-55,940 (specific activity: 101 Ci/mmole, PerkinElmer, USA) in a 50 mM Tris–HCl, pH = 7.4 buffer supplemented with 2.5 mM EDTA, 5 mM MgCl2, 0.5 mg/mL BSA and increasing concentrations of the compounds tested. Compounds were dissolved in 50% DMSO and added to the reaction mixture at 10 concentrations equally spaced on a log scale (10^–10–10^–4.5 M). The final DMSO concentration was 5%. […] The reaction mixture (500 μL) was incubated for 1.5 h at 30 °C. Before harvesting, Brandel Whatman GF/B Filter Paper was presoaked with 0.5% polyethylenimine buffer for 30 min and then washed with 2 mL of 50 mM Tris–HCl buffer (pH = 7.4) containing 0.5% BSA to minimize nonspecific binding. The reaction was terminated by depositing the samples onto the filter paper with the Brandel M–24 Cell Harvester. Samples were then rapidly washed three times with 2 mL of wash buffer (50 mM Tris–HCl pH 7.4, 2.5 mM EDTA, 5 mM MgCl2, 0.5 mg/mL BSA) to separate the bound radioligand from free. Filters were then air-dried for 1.5 h at 60 °C. After drying, filter discs were placed on a flexible 24-well plate and 500 μL of EcoScint-20 scintillant (PerkinElmer, USA) was added to each well. Plates were counted (2 min per well) in a Trilux MicroBeta counter (PerkinElmer, USA). Data were analyzed with GraphPad Prism 5.0 software.

[3] = target: T2, human CB1 receptors (Homo sapiens, UniProt P21554); test: CB1 radioligand displacement assay ([3H]CP-55,940); type: binding; settings: for CB1 Ki (μM, 95% CI) / CB1 pKi ± SEM: [3H]CP-55,940 displacement, Chem-1 membranes
T2 construct: purchased Merck; host or cells: Chem-1
T2 sequence (P21554 whole entry): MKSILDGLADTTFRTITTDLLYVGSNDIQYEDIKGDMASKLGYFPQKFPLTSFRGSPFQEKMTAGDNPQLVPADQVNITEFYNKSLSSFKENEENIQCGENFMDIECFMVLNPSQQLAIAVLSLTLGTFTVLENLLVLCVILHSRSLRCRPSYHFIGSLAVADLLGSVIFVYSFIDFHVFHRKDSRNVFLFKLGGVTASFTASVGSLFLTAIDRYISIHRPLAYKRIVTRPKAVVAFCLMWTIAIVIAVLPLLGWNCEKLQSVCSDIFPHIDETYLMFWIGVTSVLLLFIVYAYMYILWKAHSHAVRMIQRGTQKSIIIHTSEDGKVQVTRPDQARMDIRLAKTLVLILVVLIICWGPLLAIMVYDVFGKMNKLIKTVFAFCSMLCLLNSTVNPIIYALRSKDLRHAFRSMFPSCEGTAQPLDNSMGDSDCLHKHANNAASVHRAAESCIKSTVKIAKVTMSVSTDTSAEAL
Procedure: Membrane preparations from Chem-1 cells expressing the human CB1 receptors (ChemiSCREEN CB1 Cannabinoid Receptor Membrane Preparation. Merck, USA) were incubated in duplicate with 1 nM [^3H]CP-55,940 (specific activity: 108.5 Ci/mmole, PerkinElmer, USA) in a 50 mM Tris–HCl, pH = 7.4 buffer supplemented with 1 mM CaCl2, 5 mM MgCl2, 0.2% BSA and increasing concentrations of the compounds tested. Compounds were dissolved in 50% DMSO and added to the reaction mixture at 10 concentrations equally spaced on a log scale (10^–10–10^–4.5 M). The final DMSO concentration was 5%. […] The reaction mixture (500 μL) was incubated for 1.5 h at 30 °C. Before harvesting, Brandel Whatman GF/B Filter Paper was presoaked with 0.5% polyethylenimine buffer for 30 min and then washed with 2 mL of 50 mM Tris–HCl buffer (pH = 7.4) containing 0.5% BSA to minimize nonspecific binding. The reaction was terminated by depositing the samples onto the filter paper with the Brandel M-24 Cell Harvester. Samples were then rapidly washed three times with 2 mL of wash buffer (50 mM Tris–HCl pH 7.4, 500 mM NaCl, and 5 mM MgCl2) to separate the bound radioligand from the free one. The rest of the procedure was the same as for CB2.

[4] = target: T1, human CB2; test: CB2 [35S]GTPγS assay; type: biochemical; parameters: purchased PerkinElmer ES-111-M400UA; host or cells: CHO-K1; settings: compounds at 10 μM, 100 nM CP-55,940 as stimulating ligand
Procedure: Ten micromolar concentrations of each compound were incubated in triplicate with membrane preparations from CHO-K1 cells expressing the human CB2 receptor (0.5 μg per well) (PerkinElmer, Cat. No. ES-111-M400UA) in an assay buffer containing 50 mM Tris–HCl, pH = 7.4, 0.2 mM EGTA, 3 mM MgCl2, 100 mM NaCl, 30 μM GDP and 1 mg/mL BSA) in the presence of 0.08 nM [^35S] guanosine 5′-[γ-thio]triphosphate ([^35S]GTPγS) (specific activity: 1250 Ci/mmole, PerkinElmer). Nonspecific binding was determined with 100 μM of unlabeled GTPγS. CP-55,940 (100 nM) was used as stimulating ligand. The final DMSO concentration in the assay was 5%. The reaction mixture was incubated for 60 min at 30 °C. Next, the samples were deposited under vacuum with the FilterMate Harvester (PerkinElmer, USA) onto Unifilter GF/B Plates (PerkinElmer, USA) presoaked with wash buffer (50 mM Tris–HCl, pH = 7.4). The samples were then rapidly washed with 2 mL of wash buffer. Filter plates were dried for 30 min at 50 °C and 40 μL of MicroScint PS (PerkinElmer, USA) scintillation fluid was added to each well. Radioactivity was counted in a Trilux MicroBeta^2 counter (PerkinElmer, USA). Data were analyzed with GraphPad Prism 5.0 software. Results were expressed as percent of basal [^35S]GTPγS binding in the presence of CP-55,940 from three separate experiments. Basal binding was set to 100%.

[5] = read-out: CB2 pKi ± SEM (converted)

T1 sequence (P34972 whole entry): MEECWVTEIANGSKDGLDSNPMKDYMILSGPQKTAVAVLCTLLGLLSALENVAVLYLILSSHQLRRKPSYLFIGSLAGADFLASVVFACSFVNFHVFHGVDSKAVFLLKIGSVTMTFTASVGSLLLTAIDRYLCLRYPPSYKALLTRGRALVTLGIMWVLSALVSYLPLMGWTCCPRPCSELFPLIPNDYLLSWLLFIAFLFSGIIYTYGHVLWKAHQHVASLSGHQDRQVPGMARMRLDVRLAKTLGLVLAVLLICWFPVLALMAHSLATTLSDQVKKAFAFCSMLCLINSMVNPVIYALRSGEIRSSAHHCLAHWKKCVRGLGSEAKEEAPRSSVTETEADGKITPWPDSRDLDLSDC

Row | Compound | CB2 Ki (μM, 95% CI) [2] | CB2 pKi ± SEM [2] | also measured
1 | CCCCCc1cc(O)c(C/C=C(\C)CCC=C(C)C)c(O)c1 [Cannabigerol] | – | – | Ki [1]: 2920 nM
2 | CN(Cc1ccccn1)C(=O)c1c2ccccc2c2n1CCCN(Cc1ccccc1)C2=O [AS-15] | no activity | no activity | –
3 | Cc1cc(C)n(C[C@@H](O)c2ccc(-n3c4c(c5ccccc5c3=O)C(=O)c3ccccc3-4)cc2)n1 [AS-16] | no activity | no activity | –
4 | C[C@H](Sc1nnc2c3ccccc3nc(-c3ccccc3)n12)C(=O)NC[C@@H]1CCCO1 [AS-8] | – | – | CB1 Ki (μM, 95% CI) [3]: no activity; CB1 pKi ± SEM [3]: no activity; Ki ([2]; read-out: CB2 Ki (μM, 95% CI)): 6.37 µM
5 | CCCC(C)(C)c1ccc2c(c1)OC(C)(C)[C@@H]1CC=C(C)C[C@@H]21 [JWH-133] | – | – | Ki [1]: 3.4 nM
6 | CCOC(=O)c1ccc(NC(=O)Cn2c(=O)nc(-c3ccccc3)c3cc(Cl)ccc32)cc1 [AS-2] | no activity | no activity | –
7 | COc1cccc(-c2nn(Cn3nc([N+](=O)[O-])cc3C)c(-c3cccc(OC)c3)c2Cl)c1 [AS-9] | – | – | CB1 Ki (μM, 95% CI) [3]: no activity; CB1 pKi ± SEM [3]: no activity; Ki [2, 5]: 2.09 µM
8 | Cc1sc2nc(SCC(=O)c3ccc4c(c3)N(C)C(=O)CO4)nc(O)c2c1-c1ccccc1 [AS-1] | no activity | no activity | –
9 | COc1cccc(Oc2c(C)oc3c4c(ccc3c2=O)OCN(Cc2ccccn2)C4)c1 [AS-3] | no activity | no activity | –
10 | COc1ccc(C(=O)/C=C(\C(=O)c2ccccc2)c2ccccc2)cc1CN1CCOCC1 [AS-7] | – | – | CB2 intrinsic activity [4]: CB2 antagonists; Ki [3]: 2670 nM; CB1 pKi ± SEM [3]: 5.57 ± 0.9; selectivity index for CB2 (Ki-CB1/Ki-CB2) [2]: > 40; Ki ([2]; CB2 Ki (μM, 95% CI)): 0.065 µM; Ki ([2]; CB2 pKi ± SEM): 0.0661 µM
11 | Cc1ccccc1-c1cc(C(=O)N2CCN(Cc3ccc4c(c3)OCO4)CC2)c2ccccc2n1 [AS-5] | – | – | CB2 intrinsic activity [4]: CB2 antagonists; CB1 Ki (μM, 95% CI) [3]: no activity; CB1 pKi ± SEM [3]: no activity; Ki [2, 5]: 0.209 µM
12 | COc1ccc(C(=O)c2c(C)n(CCN3CCOCC3)c3cc(I)ccc23)cc1 [AM-630] | – | – | Ki [1]: 31.2 nM
13 | Cc1nn(-c2ccccc2)c(C)c1C(=O)C(=O)Nc1cc(F)ccc1NC(=O)c1ccccn1 [AS-13] | no activity | no activity | –
14 | N#Cc1c(Oc2cccc(OS(=O)(=O)CCCC(F)(F)F)c2)cccc1C(F)(F)F [BAY 59-3074] | – | – | Ki [1]: 45.5 nM
15 | Cc1nn(Cc2ccccc2)c(Cl)c1C(=O)NCc1ccccc1Cn1ccnc1 [AS-10] | – | – | Ki ([2]; read-out: CB2 Ki (μM, 95% CI)): 17.9 µM; Ki [2, 5]: 18.2 µM
16 | COCc1cc2nn(CC(=O)NCc3ccccc3Cl)c(=O)n2c(-c2ccccc2)n1 [AS-14] | no activity | no activity | –
17 | Cc1cc(C(=O)Nc2cccc(C)c2C)c2c(C)nn(Cc3ccccc3)c2n1 [AS-12] | no activity | no activity | –
18 | Cc1cc(CSc2nnc(-c3nn(Cc4ccccc4)c(=O)c4ccccc34)o2)no1 [AS-6] | no activity | no activity | –
19 | O=C(NCc1cccs1)c1cccc(Nc2nn3c(=O)c4ccccc4nc3s2)c1 [AS-11] | no activity | no activity | –
20 | Cc1nn(-c2ccccc2)c(C)c1CCc1nn2c(-c3ccccc3F)nnc2s1 [AS-4] | no activity | no activity | –
